Assays:
[1] = system: X4 strain LAI/IIIB; assay: RT activity in infected PBMCs over 20 days post-infection; format: cell-based
Procedure: Reverse Transcriptase Activity Assay: A microtiter based reverse transcriptase (RT) reaction was utilized as described by Buckheit et al., (1991), AIDS Research and Human Retroviruses, 7:295-302. Tritiated thymidine triphosphate (^3H-TTP) was suspended in distilled H2O at 5 Ci/mL. Poly rA and oligo dT were prepared as a stock solution which was kept at -20°C. RT reaction buffer was prepared fresh on a daily basis and contained 125 µL 1M EGTA, 125 µL dH2O, 110 µL 10% SDS, 50 µL 1M Tris (pH 7.4), 50 µL 1M DTT, and 40 µL 1M MgCl2. These three solutions were mixed together in a ratio of 2 parts ^3H-TTP, 1 part poly rA:oligo dT, and 1 part reaction buffer. Ten microliters of this reaction mixture were placed in a round bottom microtiter plate and 15 µL of virus containing supernatant were added and mixed. The plate was incubated at 37°C in a water bath with a solid support to prevent submersion of the plate and incubated for 60 minutes. After the incubation period, the reaction volume was spotted onto pieces of DE81 paper, washed 5 times for 5 minutes each in a 5% sodium phosphate buffer, 2 times for 1 minute each in distilled water, 2 times for 1 minute each in 70% ethanol, and then dried. Opti-Fluor-O (Packard) was added to each sample and incorporated radioactivity was quantified utilizing a Wallac 1450 MicroBeta Plus liquid scintillation counter. Plates were screened with tetrazolium dye staining as described above.
PBMCs were treated with dilutions of LUKOR of 1:4, 1:20, 1:100, 1:500, or 1:2500, or concentrations ofN-glycolylneuraminic acid or N-acetylneuraminic acid of 0.4, 1.2, 3.6, 11, or 33µg/ml. No carbohydrates were added to the control sample. RT activity was determined at 3, 6, 9,13, 17, and 20 days post-infection (PI) with X4 strain LAI/IIIB.

[2] = in vitro; format: cell-based; settings: human, cem-ss cells
Procedure: (§1) Cell Preparation: Prior to infection, CEM-SS cells were grown in complete tissue culture medium (RPMI 1640 medium with 10% heat-inactivated fetal bovine serum, 2mM L-glutamine, 100 U/mL penicillin, 100 µg/mL streptomycin, 10 µg/mL gentamycin) and transferred to T-150 flasks. On the day preceding the assay, the cells were split 1:2 to assure the cells would be in an exponential growth phase at time of infection. On the day of assay, the cells were washed twice with tissue culture medium and resuspended in fresh tissue culture medium. Total cell and viability counting were performed using a hemacytometer and trypan blue dye exclusion. Cell viability was greater than 95% for the cells to be utilized in the assay. […]
Tetrazolium dye staining of screening plates: After 6 days of incubation (37°C with 5% CO2), the test plates were analyzed by staining with the tetrazolium dye XTT (2,3-b (2-methoxy-4-nitro-5-sulfophenyl)-2H-tetrazolium -5-carboxanilide). XTT-tetrazolium is metabolized by mitochondrial enzymes of metabolically active cells to a soluble formazan product, allowing the rapid quantitative analysis of the inhibition of HIV-induced cell killing by anti-HIV compounds. […] Plates were sealed with adhesive plate sealers and inverted several times to mix the soluble formazan product and the plate was read spectrophotometrically at 450nm with a Molecular Devices Vmax plate reader. […]

[3] = system: HIV-1IIIB; assay: PBMC cell-based anti-HIV assay; settings: PBMCs; laboratory strain
Procedure: For the standard PBMC assay, PHA-P stimulated cells from at least two normal donors were pooled, diluted in fresh medium to a final concentration of 1 x 10^6 cells/mL, and plated in the interior wells of a 96 well round bottom microplate at 50 µL/well (5 x 10^4 cells/well). Test drug dilutions were prepared at a 2X concentration in microfuge tubes and 100 µL of each concentration was placed in appropriate wells in a standard format. A predetermined dilution of virus stock was placed in each test well (50 µL, final MOI ≅ 0.1). Wells with cells and virus alone were used for virus control. Separate plates were prepared identically without virus for drug cytotoxicity studies using an XTT assay system. The PBMC cultures were maintained for seven days following infection, at which time cell-free supernatant samples were collected and assayed for reverse transcriptase activity as described below.
Reverse Transcriptase Activity Assay: A microtiter based reverse transcriptase (RT) reaction was utilized as described by Buckheit et al., (1991), AIDS Research and Human Retroviruses, 7:295-302. Tritiated thymidine triphosphate (^3H-TTP) was suspended in distilled H2O at 5 Ci/mL. […] Opti-Fluor-O (Packard) was added to each sample and incorporated radioactivity was quantified utilizing a Wallac 1450 MicroBeta Plus liquid scintillation counter. […]

[4] = system: HIV-1IIIB; assay: CEM-SS cell-based anti-HIV assay (XTT); settings: 3.2µM to 1 mM; CEM-SS cells
[5] = system: HIV-1RF; assay: CEM-SS cell-based anti-HIV assay (XTT); settings: 3.2µM to 1 mM; CEM-SS cells
Procedure: as §1
Virus Preparation: Pre-tittered aliquots of HIV-1ROJO and HIV-1RF were removed from the freezer (-80°C) and thawed to room temperature in a biological safety cabinet. The virus was resuspended and diluted into tissue culture medium such that the amount of virus added to each well in a volume of 50 µL will be the amount determined to give complete cell killing at 6 days post-infection.
Tetrazolium dye staining of screening plates: After 6 days of incubation (37°C with 5% CO2), the test plates were analyzed by staining with the tetrazolium dye XTT (2,3-b (2-methoxy-4-nitro-5-sulfophenyl)-2H-tetrazolium -5-carboxanilide). […]

O=C(CO)N[C@H]1[C@H]([C@H](O)[C@H](O)CO)OC(O)(C(=O)O)C[C@@H]1O (some centres unmarked) [N-glycolylneuraminic acid]
RT Activity ([1]; 0.4 µg/ml, 3 days PI): 53
RT Activity ([1]; 0.4 µg/ml, 6 days PI): 113
RT Activity ([1]; 0.4 µg/ml, 9 days PI): 1342
RT Activity ([1]; 0.4 µg/ml, 13 days PI): 1371
RT Activity ([1]; 0.4 µg/ml, 17 days PI): 1509
RT Activity ([1]; 0.4 µg/ml, 20 days PI): 1250
RT Activity ([1]; 3.6 µg/ml, 3 days PI): 45
RT Activity ([1]; 3.6 µg/ml, 6 days PI): 44
RT Activity ([1]; 3.6 µg/ml, 9 days PI): 139
RT Activity ([1]; 3.6 µg/ml, 13 days PI): 428
RT Activity ([1]; 3.6 µg/ml, 17 days PI): 1262
RT Activity ([1]; 3.6 µg/ml, 20 days PI): 616
RT Activity ([1]; 11 µg/ml, 3 days PI): 40
RT Activity ([1]; 11 µg/ml, 6 days PI): 75
RT Activity ([1]; 11 µg/ml, 9 days PI): 956
RT Activity ([1]; 11 µg/ml, 13 days PI): 2544
RT Activity ([1]; 11 µg/ml, 17 days PI): 3261
RT Activity ([1]; 11 µg/ml, 20 days PI): 1411
RT Activity ([1]; 33 µg/ml, 3 days PI): 32
RT Activity ([1]; 33 µg/ml, 6 days PI): 75
RT Activity ([1]; 33 µg/ml, 9 days PI): 567
RT Activity ([1]; 33 µg/ml, 13 days PI): 1103
RT Activity ([1]; 33 µg/ml, 17 days PI): 2356
RT Activity ([1]; 33 µg/ml, 20 days PI): 2917
RT activity in treated cells (summary in words) ([1]; all dilutions/concentrations, 3-20 days PI): RT activity was decreased
CC50 at 144 h [2]: > 1000 µM
anti-HIV activity [3]: inactive
anti-HIV activity [4]: did not display anti-HIV activity
anti-HIV activity [5]: did not display anti-HIV activity
